This note sets out measurements from US20070099915A1, “INHIBITORS OF THE HIV INTEGRASE ENZYME” (PFIZER INC., priority 2005, published 2007).

Test [1] concerns the target T1, Full-length wild type HIV-1 integrase (SF1) (Human immunodeficiency virus type 1 group M subtype B, UniProt P04585).
T1 construct: made in house; host or cells: E. coli BL21 (DE3)
Briefly: Integrase strand-transfer scintillation proximity assay. The class given is biochemical. In general terms: In a scintillation proximity assay essentially only radioactivity close to the scintillant gives light.

In test [2] the test system is HIV-1 RF virus in CEM-SS cells. Briefly: HIV-1 cell protection assay (XTT dye reduction). The class given is cell-based. In short, it runs like this:
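Infected CEM-SS cultures incubated six days, then XTT with phenazine methosulfate added for 4 h; viability read as formazan absorbance at 450 nm. Formazan expressed as percent of uninfected, compound-free cells; CC50 from uninfected treated cells, therapeutic index as CC50/EC50.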
For orientation: Formazan colour is commonly taken as a measure of viable cells.

Where [3] appears, read: strand-transfer SPA, 246 nM integrase, 50 nM host DNA, 37° C., 50 min, read-out: IC50.
Setting [4] is: Human immunodeficiency virus 1, 144 h, RF strain of HIV-1, CEM-SS cells, XTT read-out after six days, read-out: EC50.

Where two headings read alike, the source gives them in different places.

The term IC50 denotes the concentration that inhibits the measured activity by half. As a reminder, the EC50 is the concentration at which the effect is half-maximal. As to `COC[C@H]1CCCN1C(=O)c1cn(Cc2ccc(F)cc2)c2cnc3c(c12)CCN(O)C3=O` [Example 19, 3-(4-fluorobenzyl)-7-hydroxy-1-{[(2R)-2-(methoxymethyl)pyrrolidin-1-yl]carbonyl}-3,7,8,9-tetrahydro-6H-pyrrolo[2,3-c]-1,7-naphthyridin-6-one], the IC50 in test [1] (setting [3]) was 36 nM. Besides, in test [2] (Human immunodeficiency virus 1, CEM-SS, 144 h), the EC50 was determined as 4.5 nM.
Turning to `CCOCCOCc1cn(Cc2ccc(F)cc2)c2cnc3c(c12)CCN(O)C3=O` [Example 31, 1-[(2-ethoxyethoxy)methyl]-3-(4-fluorobenzyl)-7-hydroxy-3,7,8,9-tetrahydro-6H-pyrrolo[2,3-c]-1,7-naphthyridin-6-one], the IC50 in test [1] (setting [3]) was found to be 33 nM. Besides, in test [2] (setting [4]), the EC50 was determined as 5 nM.
The corresponding values for `O=C1c2ncc3c(c(Cl)cn3Cc3ccc(F)cc3)c2CCN1O` [Example 52, 1-chloro-3-(4-fluorobenzyl)-7-hydroxy-3,7,8,9-tetrahydro-6H-pyrrolo[2,3-c]-1,7-naphthyridin-6-one] are 19 nM and 0.91 nM.
For the compound `CN(C)CCc1cn(Cc2ccc(F)cc2)c2cnc3c(c12)CCN(O)C3=O` [Example 104, 3-(4-fluorobenzyl)-1-(2-(dimethylamino)ethyl)-7-hydroxy-8,9-dihydro-3H-pyrrolo[2,3-c][1,7]naphthyridin-6(7H)-one], the IC50 in test [1] (setting [3]) turned out to be 24 nM. Further, the EC50 in test [2] (setting [4]) was 32 nM.
In test [1], `O=C1c2ncc3c(ccn3Cc3ccc(F)cc3)c2C=CCN1O` [Example 10, 3-(4-fluorobenzyl)-7-hydroxy-7,8-dihydropyrrolo[3′,2′:4,5]pyrido[2,3-c]azepin-6(3H)-one] had an IC50 of 17 nM. For the same compound, in test [2] (setting [4]), the EC50 turned out to be 0.59 nM.
Consider `CN(C)C(=O)[C@@H]1CCCN1Cc1cn(Cc2ccc(F)cc2)c2cnc3c(c12)CCN(O)C3=O` [Example 41, 1-{[3-(4-fluorobenzyl)-7-hydroxy-6-oxo-6,7,8,9-tetrahydro-3H-pyrrolo[2,3-c]-1,7-naphthyridin-1-yl]methyl}-N,N-dimethyl-L-prolinamide], for which the IC50 in test [1] (setting [3]) was determined as 28.1 nM. In test [2] (setting [4]), the EC50 was 29 nM.
As to `N#Cc1cccc(Cn2ccc3c4c(ncc32)C(=O)N(O)CC4)c1` [Example 85, 3-[(7-hydroxy-6-oxo-6,7,8,9-tetrahydro-3H-pyrrolo[2,3c]1,7-naphthyridin-3-yl)methyl]benzonitrile], the IC50 in test [1] (setting [3]) came to 558 nM. In test [2] (setting [4]), the EC50 came out at 460 nM.
With `COC1CCN(Cc2cn(Cc3ccc(F)cc3)c3cnc4c(c23)CCN(O)C4=O)CC1` [Example 100, 3-(4-fluorobenzyl)-7-hydroxy-1-[(4-methoxypiperidin-1-yl)methyl]-3,7,8,9-tetrahydro-6H-pyrrolo[2,3-c]-1,7-naphthyridin-6-one], in test [1] (setting [3]), the IC50 was 21 nM. Moreover, the EC50 in test [2] (setting [4]) came to 0.7 nM.
As for `Cc1c(CN2CCOCC2)c2c(ncc3c2ccn3Cc2ccc(F)cc2)c(=O)n1O` [Example 44, 3-(4-fluorobenzyl)-7-hydroxy-8-methyl-9-(morpholin-4-ylmethyl)-3,7-dihydro-6H-pyrrolo[2,3-c]-1,7-naphthyridin-6-one], in test [1], the IC50 was found to be 9.07 nM. The EC50 in test [2] (setting [4]) amounted to 0.45 nM.
`O=C1c2ncc3c(c(CCNCCC(F)(F)F)cn3Cc3ccc(F)cc3)c2CCN1O` [Example 117, 3-(4-fluorobenzyl)-7-hydroxy-1-{2-[(3,3,3-trifluoropropyl)amino]ethyl}-3,7,8,9-tetrahydro-6H-pyrrolo[2,3-c]-1,7-naphthyridin-6-one]: the IC50 in test [1] (setting [3]) amounted to 17 nM. Besides, the 50% effective concentration (EC50) in test [2] (setting [4]) was found to be 6 nM.
The like results for `CN1CCN(Cc2cn(Cc3ccc(F)cc3)c3cnc4c(c23)CCN(O)C4=O)CC1` [Example 29, 3-(4-fluorobenzyl)-7-hydroxy-1-[(4-methylpiperazin-1-yl)methyl]-3,7,8,9-tetrahydro-6H-pyrrolo[2,3-c]-1,7-naphthyridin-6-one] were, in that order, 28 nM and 3 nM.
